Data from ChEMBL document CHEMBL1132025, “Macrocyclic hexapeptide analogues of the thrombin receptor (PAR-1) activation motif SFLLRN” (Bioorg Med Chem Lett, 1999).
Numbered stars: 1 amine (or outer) side, 2 acyl side, 3 side chain; on linkers, the order of the positions; unused ones are H or OH. Bridge positions count the residues as written; N and C are the ends. Square brackets hold non-standard residues; d marks the D form. Peptide text beside a SMILES is read from it. Phe(3-F) = N[C@@H](Cc1cccc(F)c1)C(=O)O; Phe(4-F) = N[C@@H](Cc1ccc(F)cc1)C(=O)O; X1 = O=C(CCCN[*:2])[*:1]; GABA = NCCCC(=O)O; βAla = NCCC(=O)O

Assays:
Homo sapiens [1] = species on record: Homo sapiens; assay: (§1) Agonist activity to activate human platelet aggregation (gel-filtered platelets) at a concentration of 50 uM; format: functional
[2] = target: Proteinase-activated receptor 1 (Homo sapiens) (UniProt P25116); assay: In vitro antagonist activity to inhibit human platelet aggregation (gel-filtered platelets) induced by human thrombin at a concentration of 50 uM
Homo sapiens [3] = species on record: Homo sapiens; assay: as §1; format: functional, organism-based
Homo sapiens [4] = species on record: Homo sapiens; assay: Agonist activity to activate human platelet aggregation (gel-filtered platelets) at a concentration of 100 uM; Not active; format: functional

CC(C)C[C@@H]1NC(=O)[C@@H](NC(=O)[C@@H](CCc2ccccc2)NC(=O)[C@@H](N)CO)CCCCNC(=O)C[C@@H](C(N)=O)NC(=O)[C@H](CCCN=C(N)N)NC1=O gave an Aggregation (Homo sapiens [1]) of 16% and an inhibition [2] of 5%.

Work on CC(C)C[C@@H]1NC(=O)[C@@H](NC(=O)[C@@H](CCc2ccccc2)NC(=O)CN)CCCCNC(=O)C[C@@H](C(N)=O)NC(=O)[C@H](CCCN=C(N)N)NC1=O yielded an Aggregation (Homo sapiens [1]) of 5% and an inhibition [2] of 2%.

In the case of CC(C)C[C@@H]1NC(=O)[C@@H](NC(=O)[C@@H](CCc2ccccc2)NC(=O)CCN)CCCCNC(=O)C[C@@H](C(N)=O)NC(=O)[C@H](CCCN=C(N)N)NC1=O, the Aggregation (Homo sapiens [1]) is reported as 7% and the inhibition [2] is reported as 1%.

With CC(C)C[C@@H]1NC(=O)[C@@H](NC(=O)[C@@H](CCc2ccccc2)NC(=O)CCCN)CCCCNC(=O)C[C@@H](C(N)=O)NC(=O)[C@H](CCCN=C(N)N)NC1=O the Aggregation (Homo sapiens [1]) was 8% and the inhibition [2] was 2%.

For CC(C)C[C@H](NC(=O)[C@H](CC(C)C)NC(=O)[C@H](Cc1ccccc1)NC(=O)[C@@H](N)CO)C(=O)N[C@@H](CCCN=C(N)N)C(=O)N[C@@H](CC(N)=O)C(N)=O, the EC50 (Homo sapiens [3]) was 0.8 µM.

Compound CC(C)C[C@@H]1NC(=O)[C@@H](NC(=O)[C@@H](CCc2ccccc2)NC(=O)CCCN)CCCCNC(=O)C[C@@H](C(N)=O)NC(=O)[C@H](Cc2ccccc2)NC1=O has an EC50 (Homo sapiens [3]) of 37 µM and an inhibition [2] of 15%.

In the case of CC(C)C[C@@H]1NC(=O)[C@@H](NC(=O)[C@@H](CCc2ccccc2)NC(=O)[C@@H](N)CO)CCCCNC(=O)C[C@@H](C(N)=O)NC(=O)[C@H](Cc2ccccc2)NC1=O, the EC50 (Homo sapiens [4]) is reported as “Not Active” and the inhibition [2] is reported as 2%.

With CC(C)C[C@@H]1NC(=O)[C@@](C)(NC(=O)[C@@H](Cc2ccccc2)NC(=O)CN)CCCCNC(=O)CCCNC(=O)C[C@@H](C(N)=O)NC(=O)[C@H](CCCN=C(N)N)NC1=O the EC50 (Homo sapiens [3]) was 30 µM and the inhibition [2] was 44%.

CC(C)C[C@@H]1NC(=O)[C@@H](NC(=O)[C@@H](CCc2ccccc2)NC(=O)CCN)CCCCNC(=O)C[C@@H](C(N)=O)NC(=O)[C@H](Cc2ccccc2)NC1=O was tested, and the EC50 (Homo sapiens [3]) was 43 µM and the inhibition [2] was 16%.

CC(C)C[C@@H]1NC(=O)[C@@H](NC(=O)[C@@H](Cc2ccccc2)NC(=O)CCN)CCCCNC(=O)C[C@@H](C(N)=O)NC(=O)[C@H](Cc2ccccc2)NC1=O was tested, and the EC50 (Homo sapiens [4]) was “Not Active” and the inhibition [2] was 11%.

CC(C)C[C@@H]1NC(=O)[C@@H](NC(=O)[C@@H](CCc2ccccc2)NC(=O)CN)CCCCNC(=O)C[C@@H](C(N)=O)NC(=O)[C@H](Cc2ccccc2)NC1=O was tested, and the EC50 (Homo sapiens [4]) was “Not Active” and the inhibition [2] was 1%.

In the case of CC(C)C[C@@H]1NC(=O)[C@@H](NC(=O)[C@H](Cc2ccccc2)NC(=O)[C@H](C)N)CCCCNC(=O)C[C@@H](C(N)=O)NC(=O)[C@H](CCCN=C(N)N)NC1=O (H-AFKLRD-NH2; lactam 3-6), the EC50 (Homo sapiens [3]) is reported as 66 µM and the inhibition [2] is reported as 2%.

CC(C)C[C@@H]1NC(=O)[C@@H](NC(=O)[C@H](Cc2ccccc2)NC(=O)CN)CCCCNC(=O)C[C@@H](C(N)=O)NC(=O)[C@H](Cc2ccccc2)NC1=O (H-GFKLFD-NH2; lactam 3-6) gave an EC50 (Homo sapiens [3]) of 24 µM and an inhibition [2] of 23%.

For CC(C)C[C@@H]1NC(=O)[C@@H](NC(=O)[C@H](Cc2ccccc2)NC(=O)CN)CCCCNC(=O)C[C@@H](C(N)=O)NC(=O)[C@H](CCCN=C(N)N)NC1=O (H-GFKLRD-NH2; lactam 3-6), the Aggregation (Homo sapiens [1]) was 15% and the inhibition [2] was 9%.

CC(C)C[C@@H]1NC(=O)[C@@H](NC(=O)[C@H](Cc2cccc(F)c2)NC(=O)CN)CCCCNC(=O)C[C@@H](C(N)=O)NC(=O)[C@H](Cc2ccccc2)NC1=O (H-G[Phe(3-F)]KLFD-NH2; lactam 3-6) showed an EC50 (Homo sapiens [3]) of 63 µM and an inhibition [2] of 11%.

With CC(C)C[C@@H]1NC(=O)[C@@H](NC(=O)[C@H](Cc2cccc(F)c2)NC(=O)CN)CCCCNC(=O)C[C@@H](C(N)=O)NC(=O)[C@H](CCCN=C(N)N)NC1=O (H-G[Phe(3-F)]KLRD-NH2; lactam 3-6) the Aggregation (Homo sapiens [1]) was 6% and the inhibition [2] was 10%.

In the case of CC(C)C[C@@H]1NC(=O)[C@@H](NC(=O)[C@H](Cc2ccc(F)cc2)NC(=O)CN)CCCCNC(=O)C[C@@H](C(N)=O)NC(=O)[C@H](CCCN=C(N)N)NC1=O (H-G[Phe(4-F)]KLRD-NH2; lactam 3-6), the EC50 (Homo sapiens [3]) is reported as 60 µM and the inhibition [2] is reported as 14%.

In the case of CC(C)C[C@@H]1NC(=O)[C@H](CC(C)C)NC(=O)[C@H](Cc2ccccc2)NC(=O)[C@@H](N)CCCCNC(=O)C[C@@H](C(N)=O)NC(=O)[C@H](CCCN=C(N)N)NC1=O (H-KFLLRD-NH2; lactam 1-6), the Aggregation (Homo sapiens [1]) is reported as 6% and the inhibition [2] is reported as 3%.

CC(C)C[C@@H]1NC(=O)[C@H](CC(C)C)NC(=O)[C@H](Cc2ccccc2)NC(=O)[C@@H](N)CCCCNC(=O)CCCNC(=O)C[C@@H](C(N)=O)NC(=O)[C@H](CCCN=C(N)N)NC1=O (H-KFLLRD-NH2; linker 1-6 via X1) gave an Aggregation (Homo sapiens [1]) of 5% and an inhibition [2] of 52%.

For CC(C)C[C@@H]1NC(=O)[C@@H](NC(=O)[C@H](Cc2ccccc2)NC(=O)[C@@H](N)CO)CCCCNC(=O)C[C@@H](C(N)=O)NC(=O)[C@H](Cc2ccccc2)NC1=O (H-SFKLFD-NH2; lactam 3-6), the EC50 (Homo sapiens [4]) was “Not Active” and the inhibition [2] was 12%.

CC(C)C[C@@H]1NC(=O)[C@@H](NC(=O)[C@H](Cc2ccccc2)NC(=O)[C@@H](N)CO)CCCCNC(=O)C[C@@H](C(N)=O)NC(=O)[C@H](CCCN=C(N)N)NC1=O (H-SFKLRD-NH2; lactam 3-6) was tested, and the Aggregation (Homo sapiens [1]) was 16% and the inhibition [2] was 13%.

With CC(C)C[C@@H]1NC(=O)[C@@H](NC(=O)[C@H](Cc2cccc(F)c2)NC(=O)[C@@H](N)CO)CCCCNC(=O)C[C@@H](C(N)=O)NC(=O)[C@H](Cc2ccccc2)NC1=O (H-S[Phe(3-F)]KLFD-NH2; lactam 3-6) the EC50 (Homo sapiens [4]) was “Not Active” and the inhibition [2] was 23%.

In the case of CC(C)C[C@@H]1NC(=O)[C@@H](NC(=O)[C@H](Cc2cccc(F)c2)NC(=O)[C@@H](N)CO)CCCCNC(=O)C[C@@H](C(N)=O)NC(=O)[C@H](CCCN=C(N)N)NC1=O (H-S[Phe(3-F)]KLRD-NH2; lactam 3-6), the Aggregation (Homo sapiens [1]) is reported as 12% and the inhibition [2] is reported as 5%.

In the case of CC(C)C[C@@H]1NC(=O)[C@@H](NC(=O)[C@H](Cc2ccccc2)NC(=O)CCCN)CCCCNC(=O)C[C@@H](C(N)=O)NC(=O)[C@H](Cc2ccccc2)NC1=O (H-[GABA]FKLFD-NH2; lactam 3-6), the EC50 (Homo sapiens [4]) is reported as “Not Active” and the inhibition [2] is reported as 14%.

In the case of CC(C)C[C@@H]1NC(=O)[C@@H](NC(=O)[C@H](Cc2ccccc2)NC(=O)CCCN)CCCCNC(=O)C[C@@H](C(N)=O)NC(=O)[C@H](CCCN=C(N)N)NC1=O (H-[GABA]FKLRD-NH2; lactam 3-6), the Aggregation (Homo sapiens [1]) is reported as 6% and the inhibition [2] is reported as 6%.

With CC(C)C[C@@H]1NC(=O)[C@@H](NC(=O)[C@H](Cc2cccc(F)c2)NC(=O)CCCN)CCCCNC(=O)C[C@@H](C(N)=O)NC(=O)[C@H](Cc2ccccc2)NC1=O (H-[GABA][Phe(3-F)]KLFD-NH2; lactam 3-6) the EC50 (Homo sapiens [4]) was “Not Active” and the inhibition [2] was 27%.

Compound CC(C)C[C@@H]1NC(=O)[C@@H](NC(=O)[C@H](Cc2cccc(F)c2)NC(=O)CCCN)CCCCNC(=O)C[C@@H](C(N)=O)NC(=O)[C@H](CCCN=C(N)N)NC1=O (H-[GABA][Phe(3-F)]KLRD-NH2; lactam 3-6) has an Aggregation (Homo sapiens [1]) of 6% and an inhibition [2] of 2%.

Compound CC(C)C[C@@H]1NC(=O)[C@@H](NC(=O)[C@H](Cc2ccccc2)NC(=O)CCN)CCCCNC(=O)C[C@@H](C(N)=O)NC(=O)[C@H](CCCN=C(N)N)NC1=O (H-[βAla]FKLRD-NH2; lactam 3-6) has an Aggregation (Homo sapiens [1]) of 7% and an inhibition [2] of 3%.

In the case of CC(C)C[C@@H]1NC(=O)[C@@H](NC(=O)[C@H](Cc2cccc(F)c2)NC(=O)CCN)CCCCNC(=O)C[C@@H](C(N)=O)NC(=O)[C@H](Cc2ccccc2)NC1=O (H-[βAla][Phe(3-F)]KLFD-NH2; lactam 3-6), the EC50 (Homo sapiens [4]) is reported as “Not Active” and the inhibition [2] is reported as 24%.

With CC(C)C[C@@H]1NC(=O)[C@@H](NC(=O)[C@H](Cc2cccc(F)c2)NC(=O)CCN)CCCCNC(=O)C[C@@H](C(N)=O)NC(=O)[C@H](CCCN=C(N)N)NC1=O (H-[βAla][Phe(3-F)]KLRD-NH2; lactam 3-6) the Aggregation (Homo sapiens [1]) was 7% and the inhibition [2] was 3%.
